Conditions: Hot wire method

FC(F)(F)/C=C/Cl [(E)-1-chloro-3,3,3-trifluoroprop-1-ene]
Conditions | thermal conductivity [W/m/K]
283.61 K, 46184 kPa, Liquid | 0.1051
283.62 K, 194 kPa, Liquid | 0.08723
283.64 K, 39507 kPa, Liquid | 0.1031
283.71 K, 33240 kPa, Liquid | 0.1008
283.73 K, 64639 kPa, Liquid | 0.1101
283.76 K, 27097 kPa, Liquid | 0.09854
283.77 K, 55316 kPa, Liquid | 0.1077
283.82 K, 46190 kPa, Liquid | 0.1049
283.86 K, 39512 kPa, Liquid | 0.1027
283.93 K, 33245 kPa, Liquid | 0.1004
283.99 K, 27090 kPa, Liquid | 0.0982
301.07 K, 36400 kPa, Liquid | 0.09652
301.1 K, 25797 kPa, Liquid | 0.09286
301.12 K, 8081 kPa, Liquid | 0.08639
301.14 K, 16454 kPa, Liquid | 0.08935
301.14 K, 36402 kPa, Liquid | 0.09595
301.16 K, 25808 kPa, Liquid | 0.09205
301.18 K, 7827 kPa, Liquid | 0.08636
301.18 K, 8082 kPa, Liquid | 0.08488
301.18 K, 25511 kPa, Liquid | 0.09374
301.2 K, 16447 kPa, Liquid | 0.08939
301.24 K, 25515 kPa, Liquid | 0.09289
301.25 K, 302 kPa, Liquid | 0.08142
301.25 K, 4078 kPa, Liquid | 0.08444
301.25 K, 7830 kPa, Liquid | 0.08532
301.27 K, 16013 kPa, Liquid | 0.08986
301.31 K, 4086 kPa, Liquid | 0.08339
301.33 K, 303 kPa, Liquid | 0.08177
301.39 K, 62986 kPa, Liquid | 0.1067
301.41 K, 56492 kPa, Liquid | 0.1055
301.42 K, 48436 kPa, Liquid | 0.1008
301.43 K, 65550 kPa, Liquid | 0.1085
301.44 K, 36396 kPa, Liquid | 0.09731
301.47 K, 62992 kPa, Liquid | 0.1061
301.48 K, 42020 kPa, Liquid | 0.09884
301.49 K, 25801 kPa, Liquid | 0.09292
301.49 K, 56482 kPa, Liquid | 0.1049
301.5 K, 36232 kPa, Liquid | 0.09714
301.5 K, 48438 kPa, Liquid | 0.1006
301.5 K, 65547 kPa, Liquid | 0.1082
301.52 K, 47198 kPa, Liquid | 0.101
301.53 K, 8090 kPa, Liquid | 0.08523
301.53 K, 36388 kPa, Liquid | 0.09726
301.54 K, 16449 kPa, Liquid | 0.09014
301.54 K, 20530 kPa, Liquid | 0.09027
301.55 K, 25503 kPa, Liquid | 0.09319
301.55 K, 30551 kPa, Liquid | 0.09454
301.56 K, 143 kPa, Gas | 0.01127
301.56 K, 145 kPa, Gas | 0.01102
301.56 K, 42014 kPa, Liquid | 0.09907
301.57 K, 36234 kPa, Liquid | 0.09632
301.58 K, 25794 kPa, Liquid | 0.0925
301.59 K, 122 kPa, Gas | 0.01123
301.59 K, 131 kPa, Gas | 0.01121
301.6 K, 7831 kPa, Liquid | 0.08616
301.6 K, 11892 kPa, Liquid | 0.08784
301.6 K, 47198 kPa, Liquid | 0.1006
301.61 K, 16007 kPa, Liquid | 0.08871
301.62 K, 8093 kPa, Liquid | 0.08518
301.63 K, 367 kPa, Liquid | 0.08213
301.63 K, 7868 kPa, Liquid | 0.08523
301.63 K, 16455 kPa, Liquid | 0.08833
301.63 K, 20523 kPa, Liquid | 0.09097
301.63 K, 30560 kPa, Liquid | 0.09455
301.65 K, 25502 kPa, Liquid | 0.09219
301.68 K, 4077 kPa, Liquid | 0.08414
301.69 K, 311 kPa, Liquid | 0.08156
301.69 K, 11881 kPa, Liquid | 0.08767
301.69 K, 16012 kPa, Liquid | 0.08885
301.7 K, 7834 kPa, Liquid | 0.08567
301.72 K, 7864 kPa, Liquid | 0.08629
301.73 K, 363 kPa, Liquid | 0.08194
301.77 K, 4081 kPa, Liquid | 0.08378
301.78 K, 307 kPa, Liquid | 0.08197
301.79 K, 62991 kPa, Liquid | 0.1059
301.81 K, 65522 kPa, Liquid | 0.1076
301.83 K, 48074 kPa, Liquid | 0.1002
301.88 K, 36387 kPa, Liquid | 0.09695
301.89 K, 143 kPa, Gas | 0.01116
301.89 K, 62976 kPa, Liquid | 0.1058
301.9 K, 141 kPa, Gas | 0.01138
301.9 K, 65529 kPa, Liquid | 0.1065
301.91 K, 122 kPa, Gas | 0.01121
301.91 K, 42002 kPa, Liquid | 0.09897
301.92 K, 130 kPa, Gas | 0.01129
301.92 K, 36223 kPa, Liquid | 0.09724
301.92 K, 56462 kPa, Liquid | 0.1042
301.93 K, 47191 kPa, Liquid | 0.1005
301.94 K, 25799 kPa, Liquid | 0.09347
301.94 K, 48073 kPa, Liquid | 0.1008
301.94 K, 48421 kPa, Liquid | 0.1013
301.98 K, 30546 kPa, Liquid | 0.09459
301.99 K, 36387 kPa, Liquid | 0.09693
302 K, 16444 kPa, Liquid | 0.08896
302.01 K, 8085 kPa, Liquid | 0.08503
302.01 K, 20519 kPa, Liquid | 0.09088
302.01 K, 25500 kPa, Liquid | 0.09318
302.02 K, 41998 kPa, Liquid | 0.09906
302.03 K, 47196 kPa, Liquid | 0.1005
302.04 K, 36232 kPa, Liquid | 0.09691
302.05 K, 25799 kPa, Liquid | 0.0933
302.07 K, 11891 kPa, Liquid | 0.08755
302.07 K, 16014 kPa, Liquid | 0.08895
302.08 K, 7823 kPa, Liquid | 0.08555
302.09 K, 30563 kPa, Liquid | 0.0947
302.12 K, 7862 kPa, Liquid | 0.08568
302.12 K, 16448 kPa, Liquid | 0.08904
302.12 K, 20518 kPa, Liquid | 0.09092
302.12 K, 25501 kPa, Liquid | 0.09247
302.13 K, 365 kPa, Liquid | 0.08182
302.13 K, 8079 kPa, Liquid | 0.08538
302.16 K, 4079 kPa, Liquid | 0.0839
302.19 K, 312 kPa, Liquid | 0.08161
302.19 K, 11879 kPa, Liquid | 0.08708
302.19 K, 16009 kPa, Liquid | 0.08853
302.2 K, 7820 kPa, Liquid | 0.08528
302.24 K, 7854 kPa, Liquid | 0.08541
302.25 K, 142 kPa, Gas | 0.01122
302.25 K, 62977 kPa, Liquid | 0.106
302.26 K, 139 kPa, Gas | 0.01122
302.26 K, 383 kPa, Liquid | 0.08132
302.27 K, 65494 kPa, Liquid | 0.1068
302.28 K, 122 kPa, Gas | 0.01119
302.28 K, 130 kPa, Gas | 0.01138
302.28 K, 56452 kPa, Liquid | 0.1046
302.29 K, 4074 kPa, Liquid | 0.08366
302.3 K, 48061 kPa, Liquid | 0.1009
302.31 K, 299 kPa, Liquid | 0.08152
302.31 K, 48422 kPa, Liquid | 0.1015
302.37 K, 62973 kPa, Liquid | 0.1058
302.38 K, 36377 kPa, Liquid | 0.09716
302.39 K, 42000 kPa, Liquid | 0.09898
302.39 K, 65480 kPa, Liquid | 0.1069
302.4 K, 56441 kPa, Liquid | 0.104
302.41 K, 36234 kPa, Liquid | 0.09718
302.41 K, 47190 kPa, Liquid | 0.1008
302.42 K, 48052 kPa, Liquid | 0.1012
302.44 K, 48420 kPa, Liquid | 0.1011
302.45 K, 25800 kPa, Liquid | 0.09349
302.47 K, 30544 kPa, Liquid | 0.0948
302.51 K, 20515 kPa, Liquid | 0.09108
302.51 K, 25497 kPa, Liquid | 0.09286
302.51 K, 36380 kPa, Liquid | 0.09677
302.52 K, 41997 kPa, Liquid | 0.0988
302.53 K, 132 kPa, Gas | 0.0109

Reference: the NIST ThermoML archive (doi:10.1021/acs.jced.7b00106)
